PubChem BioAssay AID192 (DTP/NCI, 2004)
“And” between values parts separate entries of the source, which are not always exact repeats. Equal entries are not always repeated. Toxic doses and inconclusive results are not listed. Rule for the calls: active = survival T/C of 150% or more; inactive = T/C below 125% in these data.

Test system: BDF1 mice, B16 melanoma ip, median survival T/C
Test: NCI In Vivo Anticancer Drug Screen. Data for tumor model B16 Melanoma (intraperitoneal) in B6D2F1 (BDF1) mice
Details: endpoint: median survival time, higher = longer survival
Summary of the method: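 The ratio T/C compares compound-treated mice with vehicle-treated controls, using survival or tumor size as the endpoint in a transplantable tumor model.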

[1] = dose: 25.0 mg/kg/injection, schedule: Q01DX009 (ip), vehicle: Klucel (hydroxypropylcellulose) (HPC)
[2] = dose: 25.0 mg/kg/injection, schedule: Q04DX003 (ip), vehicle: Klucel (hydroxypropylcellulose) (HPC)
[3] = dose: 50.0 mg/kg/injection, schedule: Q01DX009 (ip), vehicle: Klucel (hydroxypropylcellulose) (HPC)
[4] = dose: 50.0 mg/kg/injection, schedule: Q04DX003 (ip), vehicle: Klucel (hydroxypropylcellulose) (HPC)
[5] = dose: 100.0 mg/kg/injection, schedule: Q01DX009 (ip), vehicle: Klucel (hydroxypropylcellulose) (HPC)
[6] = dose: 200.0 mg/kg/injection, schedule: Q01DX009 (ip), vehicle: Klucel (hydroxypropylcellulose) (HPC)
[7] = dose: 400.0 mg/kg/injection, schedule: Q01DX009 (ip), vehicle: Klucel (hydroxypropylcellulose) (HPC)
[8] = dose: 12.5 mg/kg/injection, schedule: Q01DX009 (ip), vehicle: saline
[9] = dose: 25.0 mg/kg/injection, schedule: Q01DX009 (ip), vehicle: saline
[10] = dose: 50.0 mg/kg/injection, schedule: Q01DX009 (ip), vehicle: saline
[11] = dose: 50.0 mg/kg/injection, schedule: Q01DX009 (ip), vehicle: saline with Tween-80
[12] = dose: 100.0 mg/kg/injection, schedule: Q01DX009 (ip), vehicle: saline with Tween-80
[13] = dose: 200.0 mg/kg/injection, schedule: Q01DX009 (ip), vehicle: saline with Tween-80
[14] = dose: 2.0 mg/kg/injection, schedule: Q01DX009 (ip), vehicle: saline with Tween-80
[15] = dose: 12.5 mg/kg/injection, schedule: Q01DX009 (ip), vehicle: Klucel (hydroxypropylcellulose) (HPC)
[16] = dose: 12.5 mg/kg/injection, schedule: Q01DX009 (ip), vehicle: saline with Tween-80
[17] = dose: 25.0 mg/kg/injection, schedule: Q01DX009 (ip), vehicle: saline with Tween-80
[18] = dose: 100.0 mg/kg/injection, schedule: Q01DX009 (ip), vehicle: saline

Measured: T/C

CCOc1c(Br)cc(Br)cc1/C=N/NS(=O)(=O)c1ccc(C)cc1
inactive: dose: 12.5 mg/kg/injection, schedule: Q04DX003 (ip), vehicle: Klucel (hydroxypropylcellulose) (HPC) 102 % of control | [1] 91 % of control | [2] 107 % of control | [3] 97 % of control | [4] 104 % of control | dose: 170.0 mg/kg/injection, schedule: Q04DX003 (ip), vehicle: Klucel (hydroxypropylcellulose) (HPC) 97 % of control

CCOc1ccccc1NC(=O)Nc1ccccc1
inactive: [5] 102 % of control | [6] 103 % of control | [7] 99 % of control

Nc1ncnc2c1ncn2C1OCC(O)C1O (stereo not given)
inactive: [8] 101 % of control | [9] 108 % of control | [10] 116 % of control

Cc1ccc(NC(=O)C(Cl)(Cl)Cl)cc1C
inactive: [5] 96 % of control | [6] 96 % of control | [7] 96 % of control

C=C(C)C(=O)OC1C/C(CO)=C\C(O)C/C(C)=C/C2OC(=O)C(=C)C21 (stereo not given)
inactive: dose: 1.25 mg/kg/injection, schedule: Q01DX009 (ip), vehicle: saline + alcohol 110 % of control | dose: 2.5 mg/kg/injection, schedule: Q01DX009 (ip), vehicle: saline + alcohol 90 % of control | dose: 5.0 mg/kg/injection, schedule: Q01DX009 (ip), vehicle: saline + alcohol 92 % of control | dose: 10.0 mg/kg/injection, schedule: Q01DX009 (ip), vehicle: saline + alcohol 100 % of control | dose: 20.0 mg/kg/injection, schedule: Q01DX009 (ip), vehicle: saline + alcohol 91 % of control | dose: 40.0 mg/kg/injection, schedule: Q01DX009 (ip), vehicle: saline + alcohol 95 % of control

O=CNC(Cc1cnc[nH]1)C(=O)O (stereo not given)
inactive: [11] 102 % of control | [12] 100 % of control | [13] 103 % of control | dose: 400.0 mg/kg/injection, schedule: Q01DX009 (ip), vehicle: saline with Tween-80 100 % of control

O=C(Nc1ccccc1)OCCOc1ccc(Cl)cc1Cl
inactive: [5] 96 % of control | [6] 114 % of control | [7] 110 % of control

CC(=O)OC(CC(=O)CC(O)(C(F)(F)F)C(F)(F)F)(C(F)(F)F)C(F)(F)F
inactive: dose: 3.13 mg/kg/injection, schedule: Q01DX009 (ip), vehicle: saline 102 % of control | dose: 3.13 mg/kg/injection, schedule: Q04DX003 (ip), vehicle: saline 97 % of control | dose: 6.25 mg/kg/injection, schedule: Q01DX009 (ip), vehicle: saline 107 % of control | dose: 6.25 mg/kg/injection, schedule: Q04DX003 (ip), vehicle: saline 100 % of control | [8] 92 % of control | dose: 12.5 mg/kg/injection, schedule: Q04DX003 (ip), vehicle: saline 100 % of control

Oc1ccc(Cl)c2cccnc12
inactive: dose: 12.5 mg/kg/injection, schedule: Q01DX009 (ip), vehicle: carboxymethylcellulose (CMC) 90 % of control | dose: 25.0 mg/kg/injection, schedule: Q01DX009 (ip), vehicle: carboxymethylcellulose (CMC) 96 % of control | dose: 50.0 mg/kg/injection, schedule: Q01DX009 (ip), vehicle: carboxymethylcellulose (CMC) 97 % of control

CCC[CH2][Sn]1([CH2]CCC)[O]C(=O)C[S]1
inactive: dose: 1.0 mg/kg/injection, schedule: Q01DX009 (ip), vehicle: saline with Tween-80 103 % of control | [14] 101 % of control

C=CC(=O)NCNC(=O)CCBr
inactive: [1] 115 % of control | [3] 121 % of control | [5] 123 % of control

N#CC(=C1C=CC(=NO)C=C1)c1ccccc1
inactive: [15] 100 % of control | [3] 112 % of control | [5] 103 % of control

Cc1cc(Cl)ccc1NC(=O)c1cccc(C(=O)Nc2ccc(Cl)cc2C)c1
inactive: [5] 100 % of control | [6] 100 % of control | [7] 96 % of control

NC(N)=Nc1ccc(C(=O)Oc2ccc([N+](=O)[O-])cc2Cl)cc1
inactive: [16] 97 % of control | [17] 101 % of control | [11] 93 % of control

Oc1nc(/N=C2/N=c3ccc(Cl)cc3=N2)[nH]c1O
inactive: [15] 86 % of control | [1] 93 % of control | [3] 86 % of control

COc1ccc2c(ccc3oc([N+](=O)[O-])cc32)c1
inactive: [15] 115 % of control | [1] 118 % of control | [3] 123 % of control

O=[N+]([O-])c1ccc2ccccc2c1-c1c([N+](=O)[O-])ccc2ccccc12
inactive: [11] 97 % of control | [12] 101 % of control | [13] 97 % of control

CC(=O)CC(=O)NCc1ccncc1
inactive: [18] 118 % of control | dose: 200.0 mg/kg/injection, schedule: Q01DX009 (ip), vehicle: saline 112 % of control | dose: 400.0 mg/kg/injection, schedule: Q01DX009 (ip), vehicle: saline 116 % of control

C#CCN(C)Cc1ccccc1
inactive: [8] 97 % of control | [9] 97 % of control | [10] 100 % of control

CN(C)CCN(Cc1ccccc1)c1ccccc1
inactive: [2] 95 % of control | [4] 89 % of control

CCOC(=O)c1ccc(OC(=O)Nc2ccccc2)cc1
inactive: [17] 97 % of control | [11] 97 % of control | [12] 93 % of control and 95 % of control

Cc1cnc2c(=O)[nH]c(=O)[nH]c2n1
inactive: [5] 90 % of control | [7] 93 % of control

NNC(=O)c1ccncc1
inactive: [8] 111 % of control | dose: 16.0 mg/kg/injection, schedule: Q01DX009 (ip), vehicle: saline 98 % of control | [9] 100 % of control | dose: 32.0 mg/kg/injection, schedule: Q01DX009 (ip), vehicle: saline 98 % of control | [10] 105 % of control | dose: 64.0 mg/kg/injection, schedule: Q01DX009 (ip), vehicle: saline 100 % of control | [18] 111 % of control | dose: 128.0 mg/kg/injection, schedule: Q01DX009 (ip), vehicle: saline 90 % of control

NC(CNC(=O)C(Cl)Cl)C(=O)O (stereo not given)
inactive: dose: 6.25 mg/kg/injection, schedule: Q01DX009 (ip), vehicle: water 93 % of control | dose: 12.5 mg/kg/injection, schedule: Q01DX009 (ip), vehicle: water 105 % of control | dose: 25.0 mg/kg/injection, schedule: Q01DX009 (ip), vehicle: water 100 % of control | dose: 50.0 mg/kg/injection, schedule: Q01DX009 (ip), vehicle: water 98 % of control | dose: 100.0 mg/kg/injection, schedule: Q01DX009 (ip), vehicle: water 89 % of control

O=C(Nc1cccc(C(F)(F)F)c1)c1cc(Br)cc(Br)c1O
inactive: [15] 108 % of control | [1] 106 % of control | [3] 110 % of control

N#CC(=C1C=CC(=NO)C=C1)c1ccc(Cl)cc1
inactive: dose: 6.25 mg/kg/injection, schedule: Q01DX009 (ip), vehicle: saline with Tween-80 88 % of control | [16] 95 % of control | [17] 87 % of control | [11] 86 % of control

CCOc1ccc(NC(=O)c2ccccc2Cl)cc1
inactive: [5] 93 % of control | [6] 112 % of control | [7] 93 % of control

CN1CCc2cc3c(cc2C1)OCO3
inactive: [9] 94 % of control | [10] 93 % of control | [18] 95 % of control

CC(C)CC(C)(c1ccc(O)cc1)c1ccc(O)cc1
inactive: [12] 98 % of control | [13] 98 % of control

COc1cc2c3c(c4ccc(OC)c(OC)c4c2cc1OC)CN1CCC[C@@H]1C3
inactive: [14] 97 % of control | dose: 4.0 mg/kg/injection, schedule: Q01DX009 (ip), vehicle: saline with Tween-80 89 % of control | dose: 8.0 mg/kg/injection, schedule: Q01DX009 (ip), vehicle: saline with Tween-80 102 % of control and 118 % of control | dose: 16.0 mg/kg/injection, schedule: Q01DX009 (ip), vehicle: saline with Tween-80 106 % of control

CCOC(=O)/C=C/c1c[nH]c(C(=O)OCC)c1
inactive: [3] 102 % of control | [5] 96 % of control | [6] 99 % of control | [7] 98 % of control

CC(COC(=O)c1ccccc1)(COC(=O)c1ccccc1)COC(=O)c1ccccc1
inactive: [5] 110 % of control | [6] 107 % of control | [7] 100 % of control

CC[n+]1ccc(Nc2ccc(/C=C/c3ccc4cc(Nc5cc[n+](CC)cc5)ccc4[n+]3CC)cc2)cc1
inactive: dose: 2.5 mg/kg/injection, schedule: Q01DX009 (ip), vehicle: saline 117 % of control | dose: 5.0 mg/kg/injection, schedule: Q01DX009 (ip), vehicle: saline 109 % of control | dose: 10.0 mg/kg/injection, schedule: Q01DX009 (ip), vehicle: saline 86 % of control
